Measurements: ChEMBL document CHEMBL1145400, “Synthesis and biological evaluation of 4(5)-(6-alkylpyridin-2-yl)imidazoles as transforming growth factor-beta type 1 receptor kinase inhibitors” (J Med Chem, 2007)

target: T1, Serine/threonine-protein kinase D1 (Homo sapiens, UniProt Q15139); experiment: Inhibition of PKCmu
T1 sequence (Q15139 whole entry): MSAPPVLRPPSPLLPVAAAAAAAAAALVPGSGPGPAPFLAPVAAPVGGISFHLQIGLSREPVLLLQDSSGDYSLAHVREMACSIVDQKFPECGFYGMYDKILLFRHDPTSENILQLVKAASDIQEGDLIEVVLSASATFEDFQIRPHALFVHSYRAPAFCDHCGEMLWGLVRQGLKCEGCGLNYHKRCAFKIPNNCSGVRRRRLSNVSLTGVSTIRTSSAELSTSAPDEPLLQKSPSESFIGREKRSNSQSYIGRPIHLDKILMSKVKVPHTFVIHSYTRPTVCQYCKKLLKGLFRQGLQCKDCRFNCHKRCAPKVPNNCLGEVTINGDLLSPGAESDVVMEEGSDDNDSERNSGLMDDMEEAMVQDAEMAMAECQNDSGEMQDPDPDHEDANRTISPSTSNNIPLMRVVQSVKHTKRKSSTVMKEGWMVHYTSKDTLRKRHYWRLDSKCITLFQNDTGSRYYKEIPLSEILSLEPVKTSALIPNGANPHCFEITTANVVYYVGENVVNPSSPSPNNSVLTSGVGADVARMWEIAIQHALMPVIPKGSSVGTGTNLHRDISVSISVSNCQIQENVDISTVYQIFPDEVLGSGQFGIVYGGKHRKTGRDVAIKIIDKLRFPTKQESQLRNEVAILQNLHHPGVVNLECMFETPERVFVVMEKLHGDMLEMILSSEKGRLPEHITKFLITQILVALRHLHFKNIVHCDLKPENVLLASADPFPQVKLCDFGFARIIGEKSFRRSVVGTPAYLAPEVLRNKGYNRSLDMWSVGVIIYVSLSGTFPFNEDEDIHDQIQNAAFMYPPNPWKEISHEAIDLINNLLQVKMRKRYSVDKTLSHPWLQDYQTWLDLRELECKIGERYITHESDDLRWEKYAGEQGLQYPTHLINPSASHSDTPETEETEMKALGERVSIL

Compound | IC50 [nM]
Cc1cccc(-c2[nH]c(CNc3cccc(C#N)c3)nc2-c2ccc3nccnc3c2)n1 | 1000

target: Mitogen-activated protein kinase 14 (Homo sapiens, UniProt Q16539)
Sequence (Q16539 whole entry): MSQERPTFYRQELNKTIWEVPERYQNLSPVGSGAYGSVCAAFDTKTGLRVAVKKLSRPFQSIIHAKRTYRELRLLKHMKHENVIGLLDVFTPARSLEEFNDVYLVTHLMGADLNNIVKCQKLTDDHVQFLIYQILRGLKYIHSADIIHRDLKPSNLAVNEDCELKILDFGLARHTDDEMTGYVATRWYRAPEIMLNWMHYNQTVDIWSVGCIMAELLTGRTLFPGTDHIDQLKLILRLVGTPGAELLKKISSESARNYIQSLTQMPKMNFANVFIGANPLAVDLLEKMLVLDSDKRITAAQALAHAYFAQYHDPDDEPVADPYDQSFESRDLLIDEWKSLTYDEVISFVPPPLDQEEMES

Compound | IC50 [nM]
Cc1cccc(-c2[nH]c(CNc3cccc(C#N)c3)nc2-c2ccc3nccnc3c2)n1 | 1030

target: T2, TGF-beta receptor type-1 (Homo sapiens, UniProt P36897); experiment: Inhibition of human recombinant ALK5 phosphorylation expressed in Sf9 cells
T2 sequence (P36897 whole entry): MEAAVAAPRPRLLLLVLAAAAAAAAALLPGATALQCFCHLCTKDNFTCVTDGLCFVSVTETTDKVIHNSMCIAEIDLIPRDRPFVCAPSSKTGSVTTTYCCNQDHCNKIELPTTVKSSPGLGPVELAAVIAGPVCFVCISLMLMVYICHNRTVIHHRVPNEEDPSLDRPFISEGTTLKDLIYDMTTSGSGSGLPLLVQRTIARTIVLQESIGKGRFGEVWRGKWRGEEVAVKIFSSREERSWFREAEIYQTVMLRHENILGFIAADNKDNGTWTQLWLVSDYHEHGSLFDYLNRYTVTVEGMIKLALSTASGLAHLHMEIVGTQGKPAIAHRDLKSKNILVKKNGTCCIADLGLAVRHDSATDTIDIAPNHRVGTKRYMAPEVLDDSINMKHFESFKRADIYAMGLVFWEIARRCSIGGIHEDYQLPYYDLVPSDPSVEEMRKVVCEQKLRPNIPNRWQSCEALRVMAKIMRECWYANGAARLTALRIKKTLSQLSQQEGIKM

IC50 [nM] | Compound
92 | CCc1cccc(-c2nc(CNc3ccc(C(N)=O)cc3)[nH]c2-c2ccc3nccnc3c2)n1
73 | CCc1cccc(-c2nc(CNc3cccc(C#N)c3)[nH]c2-c2ccc3c(c2)OCO3)n1
360 | CCc1cccc(-c2[nH]c(CNc3ccc(C#N)cc3)nc2-c2ccc3c(c2)OCO3)n1
42 | Cc1cccc(-c2[nH]c(CNc3ccc(C#N)cc3)nc2-c2ccc3nccnc3c2)n1
119 | CCc1cccc(-c2[nH]c(CNc3cccc(C#N)c3)nc2-c2ccc3nccnc3c2)n1
262 | Cc1cccc(-c2[nH]c(CNc3ccc(C(N)=O)cc3)nc2-c2ccc3c(c2)OCO3)n1
46 | CCc1cccc(-c2nc(CNc3cccc(C(N)=O)c3)[nH]c2-c2ccc3c(c2)OCO3)n1
10 | Cc1cccc(-c2nc(CNc3cccc(C(N)=O)c3)[nH]c2-c2ccc3nccnc3c2)n1
15 | CCc1cccc(-c2[nH]c(CNc3cccc(C(N)=O)c3)nc2-c2ccc3nccnc3c2)n1
385 | CCc1cccc(-c2[nH]c(CNc3ccc(C(N)=O)cc3)nc2-c2ccc3c(c2)OCO3)n1
153 | Cc1cccc(-c2[nH]c(NCc3ccc(C#N)cc3)nc2-c2ccc3c(c2)OCO3)n1

Compound | IC50 [nM]
Cc1cccc(-c2[nH]c(NCc3cccc(C#N)c3)nc2-c2ccc3c(c2)OCO3)n1 | 24
Cc1cccc(-c2[nH]c(CNc3ccc(C#N)cc3)nc2-c2ccc3c(c2)OCO3)n1 | 174
CCc1cccc(-c2[nH]c(CNc3ccc(C#N)cc3)nc2-c2ccc3nccnc3c2)n1 | 47
Cc1cccc(-c2nc(CNc3ccc(C(N)=O)cc3)[nH]c2-c2ccc3nccnc3c2)n1 | 75
Cc1cccc(-c2[nH]c(CNc3cccc(C#N)c3)nc2-c2ccc3c(c2)OCO3)n1 | 46
Cc1cccc(-c2[nH]c(CNc3cccc(C#N)c3)nc2-c2ccc3nccnc3c2)n1 | 12
Cc1cccc(-c2[nH]c(CNc3cccc(C(N)=O)c3)nc2-c2ccc3c(c2)OCO3)n1 | 21
